The numbers were not newly measured in patent US8598236B2, “Emulsion system derived from engkabang fat esters” (Universiti Putra Malaysia, priority 2009, dated 2013), which cites them from elsewhere.

The conditions of this data set: purchased nonionic surfactants.
On to Sorbitan mono-oleate [Span80], for which the HLB value is reported as 4.3.

For “polyoxyethylene (20) sorbitan tri-oleate [Tween85]”, the HLB value is 11.0.

sorbitan monolaurate [Span20]: the HLB value was 8.6.
